{"source": "patent US20250197373A1", "about": "“SMALL MOLECULE COMPOUND OR SALT THEREOF OR SOLVATE OF THEM, GUANINE NUCLEOTIDE-BINDING PROTEIN G(Q) SUBUNIT ALPHA (GNAQ) INHIBITOR CONTAINING THE SAME AND METHOD FOR TREATING AND/OR PREVENTING CANCER” (INDUSTRIAL TECHNOLOGY RESEARCH INSTITUTE, priority 2023, published 2025)", "type_in_all_cases": "cell-based", "key": {"[1]": {"test_system": "MDA-MB-231-OE-GNAQ (T96S)", "test": "Inhibition of growth of triple-negative breast cancer cells MDA-MB-231-OE-GNAQ (T96S) (PrestoBlue)", "conditions": "Homo sapiens, 168 h, 7 days culture, 2% fetal bovine serum, read-out: Inhibitory activity (evaluated by IC50)", "protocol": "(§1) Triple-negative breast cancer cells, MDA-MB-231 and MDA-MB-231-OE-GNAQ (T96S) (additionally expressing GNAQ (T96S)) were cultured in L-15 medium and in a temperature-controlled incubator without need of additional offer of 5% carbon dioxide.\n(§2) 1×10^3 of the cells mentioned above were seeded in a 96-well plate, placed in a temperature-controlled incubator and cultured overnight (at least 16 hours).\n(§3) After overnight incubation, the supernatant was removed. Next, after 200 μL of cell culture medium (containing 2% fetal bovine serum) containing different concentrations of test compound was added to each well of the 96-well plate, the 96-well plate was placed in a 37° C. incubator for 7 days further culture. After that, an additional 30 μL of diluted PrestoBlue™ Cell Viability Reagent (Catalog Number: A13261; Thermo Fisher Scientific) (4 μL stock solution and 26 μL culture medium) was added to each well of the 96-well plate and the reaction was continued for further about 1 hour.\n(§4) Finally, the fluorescence value at the wavelength of 535/615 nm of each well was read with a plate enzyme immunoassay analyzer, and the inhibitory rate of the compound on triple-negative breast cancer cells were calculated using the following formula.\n(§5) Moreover, the half maximal inhibitory concentration (IC50) of the compound on the growth of triple-negative breast cancer cells was calculated with the inhibitory rate of compound on triple-negative breast cancer cells at each concentration through the online half maximal inhibitory concentration (IC50) calculation software, IC50 Calculator, provided by AAT Bioquest company on its website (https://www.aatbio.com/tools/ic50-calculator).\n(§6) Finally, the inhibition of the compound on the growth of triple-negative breast cancer cells was evaluated by the calculated half maximal inhibitory concentration (IC50) of the compound on the growth of triple-negative breast cancer cells.\n(§7) The inhibition of the compound on the growth of triple-negative breast cancer cells was evaluated by the half maximal inhibitory concentration (IC50) of the compound (one of Compound 1 to Compound 15 prepared above) on the growth of triple-negative breast cancer cells through the human triple-negative breast cancer cell lines MDA-MB-231 and MDA-MB-231-OE-GNAQ (T96S) (additionally expressing GNAQ (T96S))."}, "MDA-MB-231": {"test_system": "MDA-MB-231", "test": "Inhibition of growth of triple-negative breast cancer cells MDA-MB-231 (PrestoBlue)", "conditions": "Homo sapiens, 168 h, 7 days culture, 2% fetal bovine serum, read-out: Inhibitory activity (evaluated by IC50)", "protocol": "as §1, §2, §3, §4, §5, §6, §7"}, "MCF-7 cells": {"test_system": "MCF-7 cells", "test": "Inhibition of growth of mammary gland cancer cells MCF-7 (PrestoBlue)", "conditions": "Homo sapiens, MCF7, 168 h, 7 days culture, 2% fetal bovine serum, read-out: Inhibitory activity (evaluated by IC50)", "protocol": "Human mammary gland cancer cells, MCF-7 cells and MCF-7 GNAQ (T96S) cells (MCF-7 cells expressing GNAQ (T96S) after GNAQ gene deletion) were cultured in MEM medium.\n1×10^3 of the cells mentioned above were seeded in a 96-well plate and cultured overnight (at least 16 hours) in a carbon dioxide incubator.\nAfter overnight incubation, the supernatant was removed. Next, after 200 μL of cell culture medium (containing 2% fetal bovine serum) containing different concentrations of test compound was added to each well of the 96-well plate, the 96-well plate was placed in a 5% carbon dioxide incubator at 37° C. for 7 days further culture. After that, an additional 30 μL of diluted PrestoBlue™ Cell Viability Reagent (Catalog Number: A13261; Thermo Fisher Scientific) (4 μL stock solution and 26 μL culture medium) was added to each well of the 96-well plate and the reaction was continued for further about 1 hour.\nFinally, the fluorescence value at the wavelength of 535/615 nm of each well was read with a plate enzyme immunoassay analyzer, and the inhibitory rate of the compound on mammary gland cancer cells were calculated using the following formula.\nMoreover, the half maximal inhibitory concentration (IC50) of the compound on the growth of mammary gland cancer cells was calculated with the inhibitory rate of the compound on mammary gland cancer cells at each concentration through the online half maximal inhibitory concentration (IC50) calculation software, IC50 Calculator, provided by AAT Bioquest company on its website (https://www.aatbio.com/tools/ic50-calculator).\nFinally, the inhibition of the compound on the growth of mammary gland cancer cells was evaluated by the calculated half maximal inhibitory concentration (IC50) of the compound on the growth of mammary gland cancer cells.\nThe inhibition of the compound on the growth of breast cancer cells was evaluated by the half maximal inhibitory concentration (IC50) of the compound (one of Compound 1 to Compound 15 prepared above) on the growth of mammary gland cancer cells through the human mammary gland cancer cell line MCF-7 and the human mammary gland cancer cell line MCF-7 GNAQ (T96S) expressing the mutated gene."}}, "data": [{"smiles": "O=C(Nc1ccc(-c2ccnc(-c3cccc(C(F)(F)F)c3)n2)cc1)Nc1cc(Cl)nc(Cl)c1", "note": "[Compound 7]", "values": [{"measurement": "IC50", "setting": "[1]", "value": "0.31 to 2.5", "unit": "µM"}, {"measurement": "IC50", "setting": "MDA-MB-231", "value": "0.31 to 2.5", "unit": "µM"}, {"measurement": "IC50", "setting": "MCF-7 cells", "value": "0.31 to 2.5", "unit": "µM"}]}, {"smiles": "N#Cc1cccc(-c2nccc(-c3cccc(NC(=O)Nc4cc(Cl)nc(Cl)c4)c3)n2)c1", "note": "[Compound 3]", "values": [{"measurement": "IC50", "setting": "[1]", "value": "0.31 to 2.5", "unit": "µM"}, {"measurement": "IC50", "setting": "MDA-MB-231", "value": "0.31 to 2.5", "unit": "µM"}, {"measurement": "IC50", "setting": "MCF-7 cells", "value": "0.31 to 2.5", "unit": "µM"}]}, {"smiles": "O=C(Nc1cccc(-c2ccnc(-c3cccc(C(F)(F)F)c3)n2)c1)Nc1cc(Cl)nc(Cl)c1", "note": "[Compound 2]", "values": [{"measurement": "IC50", "setting": "[1]", "value": "0.31 to 2.5", "unit": "µM"}, {"measurement": "IC50", "setting": "MDA-MB-231", "value": "0.31 to 2.5", "unit": "µM"}, {"measurement": "IC50", "setting": "MCF-7 cells", "value": "0.31 to 2.5", "unit": "µM"}]}, {"smiles": "O=C(Nc1ccc(-c2ccnc(-c3cccc(C(F)(F)F)c3)n2)cc1)Nc1ccc(Cl)c(C(F)(F)F)c1", "note": "[Compound 8]", "values": [{"measurement": "IC50", "setting": "[1]", "value": "0.31 to 2.5", "unit": "µM"}, {"measurement": "IC50", "setting": "MDA-MB-231", "value": "0.31 to 2.5", "unit": "µM"}, {"measurement": "IC50", "setting": "MCF-7 cells", "value": "0.31 to 2.5", "unit": "µM"}]}, {"smiles": "O=C(Nc1cccc(-c2cccc(-c3ccncc3)n2)c1)Nc1cc(Cl)nc(Cl)c1", "note": "[Compound 13]", "values": [{"measurement": "IC50", "setting": "[1]", "value": "0.31 to 2.5", "unit": "µM"}, {"measurement": "IC50", "setting": "MDA-MB-231", "value": "0.31 to 2.5", "unit": "µM"}, {"measurement": "IC50", "setting": "MCF-7 cells", "value": "0.31 to 2.5", "unit": "µM"}]}, {"smiles": "O=C(Nc1cccc(-c2cc(-c3cccc(C(F)(F)F)c3)ncn2)c1)Nc1cc(Cl)nc(Cl)c1", "note": "[Compound 14]", "values": [{"measurement": "IC50", "setting": "[1]", "value": "0.31 to 2.5", "unit": "µM"}, {"measurement": "IC50", "setting": "MDA-MB-231", "value": "0.31 to 2.5", "unit": "µM"}, {"measurement": "IC50", "setting": "MCF-7 cells", "value": "< 0.31", "unit": "µM"}]}, {"smiles": "FC(F)(F)c1cccc(-c2cccc(-c3ccc(NC(=S)Nc4cc(Cl)nc(Cl)c4)cc3)n2)c1", "note": "[Compound 10]", "values": [{"measurement": "IC50", "setting": "[1]", "value": "0.31 to 2.5", "unit": "µM"}, {"measurement": "IC50", "setting": "MDA-MB-231", "value": "0.31 to 2.5", "unit": "µM"}, {"measurement": "IC50", "setting": "MCF-7 cells", "value": "0.31 to 2.5", "unit": "µM"}]}, {"smiles": "O=C(Nc1ccc(-c2cccc(-c3ccncc3)n2)cc1)Nc1ccc(Cl)c(C(F)(F)F)c1", "note": "[Compound 12]", "values": [{"measurement": "IC50", "setting": "[1]", "value": "0.31 to 2.5", "unit": "µM"}, {"measurement": "IC50", "setting": "MDA-MB-231", "value": "0.31 to 2.5", "unit": "µM"}, {"measurement": "IC50", "setting": "MCF-7 cells", "value": "0.31 to 2.5", "unit": "µM"}]}, {"smiles": "O=C(Nc1cccc(-c2ccnc(-c3cccc(C(F)(F)F)c3)n2)c1)c1cc(Cl)nc(Cl)c1", "note": "[Compound 5]", "values": [{"measurement": "IC50", "setting": "[1]", "value": "0.31 to 2.5", "unit": "µM"}, {"measurement": "IC50", "setting": "MDA-MB-231", "value": "0.31 to 2.5", "unit": "µM"}, {"measurement": "IC50", "setting": "MCF-7 cells", "value": "0.31 to 2.5", "unit": "µM"}]}, {"smiles": "N#Cc1cccc(-c2cccc(-c3ccc(NC(=S)Nc4cc(Cl)nc(Cl)c4)cc3)n2)c1", "note": "[Compound 11]", "values": [{"measurement": "IC50", "setting": "[1]", "value": "0.31 to 2.5", "unit": "µM"}, {"measurement": "IC50", "setting": "MDA-MB-231", "value": "0.31 to 2.5", "unit": "µM"}, {"measurement": "IC50", "setting": "MCF-7 cells", "value": "0.31 to 2.5", "unit": "µM"}]}, {"smiles": "O=C(Nc1ccc(-c2nc(-c3ccccc3)ncc2Cl)cc1)Nc1cc(Cl)nc(Cl)c1", "note": "[Compound 15]", "values": [{"measurement": "IC50", "setting": "[1]", "value": "0.31 to 2.5", "unit": "µM"}, {"measurement": "IC50", "setting": "MDA-MB-231", "value": "0.31 to 2.5", "unit": "µM"}, {"measurement": "IC50", "setting": "MCF-7 cells", "value": "< 0.31", "unit": "µM"}]}, {"smiles": "O=C(Nc1ccc(-c2ccnc(-c3ccncc3)n2)cc1)Nc1ccc(Cl)c(C(F)(F)F)c1", "note": "[Compound 6]", "values": [{"measurement": "IC50", "setting": "[1]", "value": "2.5 to 5", "unit": "µM"}, {"measurement": "IC50", "setting": "MDA-MB-231", "value": "2.5 to 5", "unit": "µM"}, {"measurement": "IC50", "setting": "MCF-7 cells", "value": "0.31 to 2.5", "unit": "µM"}]}, {"smiles": "O=C(Nc1cccc(-c2ccnc(-c3ccc(F)c(F)c3)n2)c1)Nc1cc(Cl)nc(Cl)c1", "note": "[Compound 4]", "values": [{"measurement": "IC50", "setting": "[1]", "value": "0.31 to 2.5", "unit": "µM"}, {"measurement": "IC50", "setting": "MDA-MB-231", "value": "0.31 to 2.5", "unit": "µM"}, {"measurement": "IC50", "setting": "MCF-7 cells", "value": "0.31 to 2.5", "unit": "µM"}]}, {"smiles": "O=C(Nc1ccc(-c2cccc(-c3cccc(C(F)(F)F)c3)n2)cc1)Nc1cc(Cl)nc(Cl)c1", "note": "[Compound 9]", "values": [{"measurement": "IC50", "setting": "[1]", "value": "0.31 to 2.5", "unit": "µM"}, {"measurement": "IC50", "setting": "MDA-MB-231", "value": "0.31 to 2.5", "unit": "µM"}, {"measurement": "IC50", "setting": "MCF-7 cells", "value": "0.31 to 2.5", "unit": "µM"}]}, {"smiles": "O=C(Nc1cccc(-c2ccnc(-c3ccnc(Cl)c3)n2)c1)Nc1cc(Cl)nc(Cl)c1", "note": "[Compound 1]", "values": [{"measurement": "IC50", "setting": "[1]", "value": "0.31 to 2.5", "unit": "µM"}, {"measurement": "IC50", "setting": "MDA-MB-231", "value": "0.31 to 2.5", "unit": "µM"}, {"measurement": "IC50", "setting": "MCF-7 cells", "value": "0.31 to 2.5", "unit": "µM"}]}]}
